Results published in the Deep4Chem optical property database.
Each block holds one compound with its values, some of them ahead of it.

Experiment: solvent given as SMILES

Compound: CCCCN(CCCC)c1ccc(C#Cc2cc(C#Cc3ccc(N(CCCC)CCCC)cc3)c(C#Cc3cc(C(F)(F)F)cc(C(F)(F)F)c3)cc2C#Cc2cc(C(F)(F)F)cc(C(F)(F)F)c2)cc1
- absorption maximum (in ClCCl): 433 nm

Compound: COCCC1=Cc2nc1ccc1[nH]c(c3nc(ccc4[nH]c2cc4CCOC)C(CCOC)=C3)c2c(C(=O)OC)c(C(=O)O)ccc12
- absorption maximum (in Cc1ccccc1): 636 nm

Compound: CC(C)(C)c1ccc(C2=C(c3ccc(C(C)(C)C)cc3)[Si](c3ccccc3)(c3ccccc3)c3ccccc32)cc1
- absorption maximum (in C1CCOC1): 341 nm

Compound: CCOc1cc2c(cc1/C=C/C(=C(C#N)C#N)c1ccccc1)c1ccccc1n2CC
- absorption maximum (in C1CCOC1): 462 nm
- absorption maximum (in CC#N): 462 nm
- absorption maximum (in CCO): 468 nm
- absorption maximum (in CCOC(C)=O): 458 nm
- absorption maximum (in CN(C)C=O): 471 nm
- absorption maximum (in CS(C)=O): 476 nm
- absorption maximum (in Cc1ccccc1): 462 nm
- absorption maximum (in ClC(Cl)Cl): 470 nm
- absorption maximum (in ClCCl): 468 nm

Compound: COc1ccc(C#Cc2ccc(C#N)cc2)cc1
- absorption maximum (in C1COCCO1): 330 nm
- absorption maximum (in CC#N): 324 nm
- absorption maximum (in CCCCCC): 331 nm
- absorption maximum (in CCCCCCC): 332 nm
- absorption maximum (in CCCO): 328 nm
- absorption maximum (in CCOC(C)=O): 328 nm
- absorption maximum (in CS(C)=O): 329 nm
- absorption maximum (in ClC(Cl)Cl): 332 nm
- absorption maximum (in ClCCl): 330 nm

Compound: F[B-]1(F)OC(c2ccc3ccccc3c2)=CC(c2ccc3ccccc3c2)=[O+]1
- absorption maximum (in CC#N): 419 nm
- absorption maximum (in ClC(Cl)(Cl)Cl): 412 nm

Compound: CC(C)(C)c1ccc2c(c1)sc1[n+]2[B-](F)(F)n2c(c3cccc4c(Br)ccc2c43)=C1C#N
- absorption maximum (in C1CCOC1): 539 nm
- absorption maximum (in CC#N): 532 nm
- absorption maximum (in CCCCCC): 542 nm
- absorption maximum (in Cc1ccccc1): 543 nm
- absorption maximum (in ClCCl): 538 nm

Compound: CCN1c2ccc(/C=N/Nc3ccccn3)cc2Sc2cc(-c3ccc(C#N)cc3)ccc21
- absorption maximum (in C1CCOC1): 383 nm
- absorption maximum (in CS(C)=O): 398 nm
- absorption maximum (in Cc1ccccc1): 386 nm
- absorption maximum (in ClCCl): 388 nm

Compound: CC1=CC(C)=[N+]2C1=C(c1c3ccccc3cc3ccccc13)c1c(C)cc(C)n1[B-]2(F)F
- absorption maximum (in CC#N): 502 nm
- absorption maximum (in CCCCCC): 504 nm
- absorption maximum (in CCO): 505 nm
- absorption maximum (in CN(C)C=O): 505 nm
- absorption maximum (in Cc1ccccc1): 508 nm
- absorption maximum (in ClCCl): 506 nm

Compound: CCCCCCCCC1(CCCCCCCC)c2cc(-c3ccc(C(F)(F)F)cc3)ccc2-c2ccc(N(c3ccc(-n4c5ccccc5c5ccccc54)cc3)c3ccc4c(c3)C(CCCCCCCC)(CCCCCCCC)c3cc(-c5ccc(C(F)(F)F)cc5)ccc3-4)cc21
- absorption maximum (in C1CCOC1): 375 nm
- absorption maximum (in C1COCCO1): 374 nm
- absorption maximum (in CC#N): 370 nm
- absorption maximum (in CC(C)=O): 371 nm
- absorption maximum (in CCCCCC): 380 nm
- absorption maximum (in CCCCOCCCC): 379 nm
- absorption maximum (in CCN(CC)CC): 376 nm
- absorption maximum (in CCOC(C)=O): 372 nm
- absorption maximum (in CCOCC): 374 nm
- absorption maximum (in CN(C)C=O): 373 nm
- absorption maximum (in CS(C)=O): 371 nm
- absorption maximum (in Cc1ccccc1): 379 nm
- absorption maximum (in ClC(Cl)Cl): 382 nm
- absorption maximum (in ClCCl): 378 nm
- absorption maximum (in c1ccccc1): 378 nm

Compound: COc1ccc(N(c2ccc(OC)cc2)c2ccc(-c3ccc4c(c3)C(=O)c3ccccc3C4=O)cc2)cc1
- absorption maximum (in C1CCOC1): 477 nm
- absorption maximum (in CCCCCC): 468 nm
- absorption maximum (in CCOC(C)=O): 472 nm
- absorption maximum (in CCOCC): 472 nm
- absorption maximum (in Cc1ccccc1): 481 nm
- absorption maximum (in ClC(Cl)(Cl)Cl): 483 nm
- absorption maximum (in ClCCl): 485 nm

Compound: CN(C)c1ccc(C(=Cc2ccc(/C=C/c3ccc(C#N)cc3)cc2)c2ccc(N(C)C)cc2)cc1
- absorption maximum (in C1CCOC1): 415 nm

Compound: CC(C)(C)c1ccc2c(c1)c1cc(C(C)(C)C)ccc1n2-c1ccc(S(=O)(=O)c2cccc(S(=O)(=O)c3ccc(-n4c5ccc(C(C)(C)C)cc5c5cc(C(C)(C)C)ccc54)cc3)c2)cc1
- absorption maximum (in Cc1ccccc1): 348 nm

Compound: CC1CCC(O)(c2ccc(-c3cccs3)s2)CC1 (stereo unspecified)
- absorption maximum (in C1CCOC1): 341 nm
- absorption maximum (in CC#N): 341 nm
- absorption maximum (in CCCCCC): 341 nm
- absorption maximum (in CCO): 341 nm
- absorption maximum (in OCCOCCO): 345 nm
- absorption maximum (in c1ccncc1): 345 nm

Compound: CC1(C)c2ccccc2N(c2ccccc2)c2ccc(-c3nc(-c4ccccc4)nc(-c4ccccc4)n3)cc21
- absorption maximum (in Cc1ccccc1): 389.97 nm

Compound: CC(C)(C)c1ccc2c(c1)c1cc(C(C)(C)C)ccc1n2-c1ccc(C#Cc2cccc(C#Cc3ccc(-n4c5ccc(C(C)(C)C)cc5c5cc(C(C)(C)C)ccc54)cc3)c2)cc1
- absorption maximum (in CC#N): 340 nm
- absorption maximum (in CCCCC): 340 nm
- absorption maximum (in CO): 338 nm
- absorption maximum (in Cc1ccccc1): 345 nm
- absorption maximum (in ClC(Cl)Cl): 344 nm
- absorption maximum (in ClCCl): 345 nm

Compound: COc1ccc(C#Cc2nc(C#Cc3ccc(OC)cc3)c(C#Cc3ccc(OC)cc3)c(C#Cc3ccc(OC)cc3)c2C#Cc2ccc(OC)cc2)cc1
- absorption maximum (in ClCCl): 421 nm

Compound: CCCN1C(=O)c2c3c(c4c(c2C1=O)CCc1cc(-c2ccc(N(C)C)cc2)c(OC)cc1-4)-c1cc(OC)c(-c2ccc(N(C)C)cc2)cc1CC3
- absorption maximum (in C1CCCCC1): 404 nm
- absorption maximum (in C1CCOC1): 409 nm
- absorption maximum (in CCOC(C)=O): 407 nm
- absorption maximum (in Cc1ccccc1): 412 nm

Compound: C#CCNC1=C2C(C)=CC(C)=[N+]2[B-](F)(F)n2c(C)cc(C)c21
- absorption maximum (in C1CCCCC1): 468.5 nm
- absorption maximum (in CC(C)=O): 453 nm
- absorption maximum (in CCOC(C)=O): 457 nm
- absorption maximum (in CO): 453 nm
- absorption maximum (in OCC(F)(F)F): 450.5 nm

Next, values leading:

- absorption maximum (in CC(C)O): 532 nm
- absorption maximum (in CCO): 532 nm
- absorption maximum (in CO): 526 nm
- absorption maximum (in O): 521 nm
Compound: O=C([O-])c1ccccc1-c1c2cc(I)c(=O)c(I)c-2oc2c(I)c([O-])c(I)cc12

- absorption maximum (in C1CCCCC1): 386 nm
Compound: COc1ccc2c3c(c4ccc(OC)cc4c2c1)C1(c2ccccc2-c2ccccc21)c1ccccc1-3

- absorption maximum (in ClCCl): 666 nm
Compound: COc1ccc(C#Cc2c3cc4ccccc4cc3c(C#Cc3ccc(OC)cc3)c3cc4ccccc4cc23)cc1

- absorption maximum (in ClCCl): 500 nm
Compound: COc1ccc(-c2c3cc4cc(C)sc4cc3c(-c3ccc(OC)cc3)c3cc4cc(C)sc4cc23)cc1

- absorption maximum (in ClC(Cl)Cl): 606 nm
Compound: CN1C(=CC2=C([O-])C(=Cc3oc(-c4ccc(-c5ccccc5)cc4)c[n+]3C)C2=O)C(C)(C)c2ccccc21

- absorption maximum (in C1CCCCC1): 456 nm
- absorption maximum (in C1CCOC1): 459.98 nm
- absorption maximum (in CN(C)C=O): 457.04 nm
- absorption maximum (in CO): 458.09 nm
- absorption maximum (in ClC(Cl)Cl): 459.98 nm
- absorption maximum (in c1ccccc1): 458.09 nm
Compound: CC1(C)Cc2c(c3ccccc3c3nc4ccccc4nc23)O1

- absorption maximum (in ClC(Cl)Cl): 525 nm
Compound: CC(C)[Si](C#Cc1c2c(=O)c3ccccc3c2c(C#C[Si](C(C)C)(C(C)C)C(C)C)c2c(=O)c3ccccc3c12)(C(C)C)C(C)C

- absorption maximum (in C1CCOC1): 436 nm
Compound: CN(C)c1ccc(C(=Cc2ccc(/C=C(\C#N)c3ccccc3)cc2)c2ccc(N(C)C)cc2)cc1

- absorption maximum (in ClCCl): 410 nm
Compound: CCN(CC)c1ccc2c(c1)oc(=O)c1c(C)nc3c(c(-c4ccccc4)nn3-c3ccccc3)c12

- absorption maximum (in ClC(Cl)Cl): 526 nm
Compound: CC(C)(C)[Si](C)(C)C#Cc1c2c(=O)c3ccccc3c2c(C#C[Si](C)(C)C(C)(C)C)c2c(=O)c3ccccc3c12

- absorption maximum (in CCO): 360 nm
Compound: C#Cc1ccc2cc(/C=C/C(=O)OCC)c(=O)oc2c1

- absorption maximum (in C1CCOC1): 382 nm
- absorption maximum (in C1COCCO1): 382 nm
- absorption maximum (in CC#N): 379 nm
- absorption maximum (in CCO): 379 nm
- absorption maximum (in ClCCl): 383 nm
Compound: C(=C\c1ccc(N(c2ccccc2)c2ccccc2)cc1)/c1ccc(-c2cc(-c3ccccn3)nc(-c3ccccn3)c2)cc1

- absorption maximum (in CC#N): 504 nm
- absorption maximum (in CCCCCC): 514 nm
- absorption maximum (in CCOC(C)=O): 506 nm
- absorption maximum (in CO): 497 nm
- absorption maximum (in ClCCl): 515 nm
Compound: COC1=[N+]2C(=C(c3ccccc3)c3ccc(OC)n3[B-]2(F)F)C=C1SC#N

- absorption maximum (in ClCCl): 337 nm
Compound: Cc1cc2oc3ccccc3c2c2[nH]c3ccccc3c12

- absorption maximum (in C1CCOC1): 335 nm
- absorption maximum (in C1COCCO1): 335 nm
- absorption maximum (in CC#N): 334 nm
- absorption maximum (in CCCCCCC): 276 nm
- absorption maximum (in CCO): 334 nm
- absorption maximum (in CO): 341 nm
- absorption maximum (in O): 274 nm
Compound: CC1(C)CC(=O)C2=C(C1)Oc1ccc3ccc(O)cc3c1C2c1ccccn1 (stereo unspecified)

- absorption maximum (in CC#N): 372 nm
Compound: COc1ccc(-c2csc(/C(C#N)=C/c3ccccc3Cl)n2)cc1

- absorption maximum (in ClC(Cl)Cl): 637 nm
Compound: F[B-]1(F)n2c(cc3oc4ccccc4c32)C(c2ccc(I)cc2)=C2C=c3oc4ccccc4c3=[N+]21

- absorption maximum (in CC(C)O): 285 nm
- absorption maximum (in CCCCCC): 285 nm
- absorption maximum (in CO): 284 nm
- absorption maximum (in CS(C)=O): 286 nm
- absorption maximum (in ClCCl): 286 nm
Compound: COc1ccccc1-c1nc(-c2ccc(C(F)(F)F)cc2)n(-c2ccc(C)cc2)c1-c1ccccc1OC

- absorption maximum (in CC#N): 411 nm
Compound: CN(C)c1ccc(-c2nc3nc4ccccc4nc3n2-c2ccccc2)cc1

- absorption maximum (in C1CCCCC1): 364 nm
Compound: C1=Cc2ccc3ccccc3c2N(c2ccccc2)B1c1ccccc1

- absorption maximum (in ClC(Cl)Cl): 485 nm
Compound: N#Cc1nc(N(Cc2ccccc2Br)Cc2ccccc2Br)c(C#N)nc1N(Cc1ccccc1Br)Cc1ccccc1Br

- absorption maximum (in ClCCl): 355 nm
Compound: CC(C)(C)Nc1c(-c2ccc(-c3cc(=O)cc(-c4ccccc4)o3)cc2)nc2ccccn12

- absorption maximum (in CC#N): 310 nm
Compound: CC(C)Oc1ccc(C#Cc2ccc3ccc(=O)oc3c2)cc1

- absorption maximum (in CCOC(C)=O): 416 nm
Compound: O=Cc1cc2c(cc3ccc4cccc5ccc2c3c45)[nH]1

- absorption maximum (in ClC(Cl)Cl): 572 nm
Compound: COC(=O)c1ccc(C2=C3C(C)=CC(C)=[N+]3[B-](F)(F)n3c(/C=C/c4c[nH]cn4)cc(C)c32)cc1

- absorption maximum (in C1CCCCC1): 291 nm
- absorption maximum (in CC#N): 290 nm
- absorption maximum (in CO): 290 nm
- absorption maximum (in O): 289 nm
Compound: CCOC(=O)COc1ccc(C(c2c(C)[nH]c3ccccc23)c2c(C)[nH]c3ccccc23)cc1

- absorption maximum (in CO): 403 nm
Compound: c1ccc(N(c2ccccc2)c2ccc(-c3cnc(-c4ccncc4)s3)cc2)cc1
